# Measurements reported in patent US12686673B2 (Blueprint Medicines Corporation, priority 2020, dated 2026).
# Structures can show the parent of a compound that is named as a salt. Where two headings read alike, the source gives them in different places.
# Legend:
# Format in all cases: cell-based
# [1] = biological target: EGFR(D770_N771insSVD) expressing Ba/F3 stable cell line (Homo sapiens, UniProt P00533, DUP768-770, cells depend on it); test: Cellular proliferation (Alamar Blue) assay, EGFR D770_N771insSVD Ba/F3; details: 72 hr, read-out: D770 IC50
# EGFR(D770_N771insSVD) expressing Ba/F3 stable cell line, sequence (P00533 with tags, fused parts or gaps DUP768-770): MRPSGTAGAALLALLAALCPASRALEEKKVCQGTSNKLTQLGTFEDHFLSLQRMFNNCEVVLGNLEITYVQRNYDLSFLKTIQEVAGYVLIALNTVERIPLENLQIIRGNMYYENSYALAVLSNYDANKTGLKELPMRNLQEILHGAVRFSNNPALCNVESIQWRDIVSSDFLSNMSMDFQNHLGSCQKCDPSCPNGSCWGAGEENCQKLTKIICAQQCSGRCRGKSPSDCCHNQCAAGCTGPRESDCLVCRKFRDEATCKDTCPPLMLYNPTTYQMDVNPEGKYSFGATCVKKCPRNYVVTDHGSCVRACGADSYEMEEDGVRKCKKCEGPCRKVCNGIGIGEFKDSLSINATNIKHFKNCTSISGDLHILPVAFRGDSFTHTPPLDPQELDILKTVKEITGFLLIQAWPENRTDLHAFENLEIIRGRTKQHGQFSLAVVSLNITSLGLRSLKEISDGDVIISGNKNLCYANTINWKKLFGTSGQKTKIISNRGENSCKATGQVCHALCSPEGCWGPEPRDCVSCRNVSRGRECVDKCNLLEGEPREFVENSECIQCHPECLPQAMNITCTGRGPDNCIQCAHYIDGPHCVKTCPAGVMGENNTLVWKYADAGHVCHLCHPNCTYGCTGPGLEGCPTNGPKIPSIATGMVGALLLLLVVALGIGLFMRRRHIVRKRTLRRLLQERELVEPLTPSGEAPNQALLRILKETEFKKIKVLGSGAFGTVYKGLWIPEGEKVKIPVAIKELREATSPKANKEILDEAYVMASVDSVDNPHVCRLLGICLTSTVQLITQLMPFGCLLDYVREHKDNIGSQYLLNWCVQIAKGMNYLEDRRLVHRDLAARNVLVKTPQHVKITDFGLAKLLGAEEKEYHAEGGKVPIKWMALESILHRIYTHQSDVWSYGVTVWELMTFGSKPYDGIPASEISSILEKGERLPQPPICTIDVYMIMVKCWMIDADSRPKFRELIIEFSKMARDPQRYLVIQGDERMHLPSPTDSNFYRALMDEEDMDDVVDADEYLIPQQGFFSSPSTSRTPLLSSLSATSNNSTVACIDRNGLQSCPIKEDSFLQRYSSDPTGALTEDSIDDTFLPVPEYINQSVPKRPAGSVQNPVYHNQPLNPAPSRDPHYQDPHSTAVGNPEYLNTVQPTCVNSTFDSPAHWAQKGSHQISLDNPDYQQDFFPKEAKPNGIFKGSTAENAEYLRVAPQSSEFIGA
# Protocol: (§1) • 1. EGFR(D770_N771insSVD) expressing Ba/F3 stable cell line • 2. EGFR (A767_dupASV) expressing Ba/F3 stable cell line • 3. A431 cells • 4. EGFR (H773insNPH) expressing Ba/F3 stable cell line • 5. HER2 (A775_G776insYVMA) expressing Ba/F3 stable cell line Assay Procedure: • 1. Seed cells at 5000 for A431 and 15,000 cells for Ba/F3 in 100 μL/well in complete media (for A431: DMEM with […] and for Ba/F3 cells: RPMI with 10% FBS) in 96-well tissue culture plate. Leave outer wells without cells for background measurements. Incubate at 37 degree Celsius in […] humidified incubator for 16-18 hours. • 2. Add 0.025 ml of 5× concentration compound dilution or DMSO control. Final compound concentration range is 10-0.0005 μM prepared in 3-fold serial dilutions. Incubate for 72 hr at 37 degree Celsius in […] humidified incubator. • 3. Add 0.0125 ml Alamar Blue™ reagent to each well with multi-channel pipette and tap gently on each side of the plate to mix. Incubate for 3 hours at 37 degree Celsius in 5% CO2 humidified incubator. • 4. […] Data analysis was performed using XLfit 5.5.0.5.
# [2] = biological target: EGFR (A767_dupASV) expressing Ba/F3 stable cell line (Homo sapiens, UniProt P00533, DUP767-769, cells depend on it); test: Cellular proliferation (Alamar Blue) assay, EGFR A767_dupASV Ba/F3; details: 72 hr, read-out: A767 IC50
# EGFR (A767_dupASV) expressing Ba/F3 stable cell line, sequence (P00533 with tags, fused parts or gaps DUP767-769): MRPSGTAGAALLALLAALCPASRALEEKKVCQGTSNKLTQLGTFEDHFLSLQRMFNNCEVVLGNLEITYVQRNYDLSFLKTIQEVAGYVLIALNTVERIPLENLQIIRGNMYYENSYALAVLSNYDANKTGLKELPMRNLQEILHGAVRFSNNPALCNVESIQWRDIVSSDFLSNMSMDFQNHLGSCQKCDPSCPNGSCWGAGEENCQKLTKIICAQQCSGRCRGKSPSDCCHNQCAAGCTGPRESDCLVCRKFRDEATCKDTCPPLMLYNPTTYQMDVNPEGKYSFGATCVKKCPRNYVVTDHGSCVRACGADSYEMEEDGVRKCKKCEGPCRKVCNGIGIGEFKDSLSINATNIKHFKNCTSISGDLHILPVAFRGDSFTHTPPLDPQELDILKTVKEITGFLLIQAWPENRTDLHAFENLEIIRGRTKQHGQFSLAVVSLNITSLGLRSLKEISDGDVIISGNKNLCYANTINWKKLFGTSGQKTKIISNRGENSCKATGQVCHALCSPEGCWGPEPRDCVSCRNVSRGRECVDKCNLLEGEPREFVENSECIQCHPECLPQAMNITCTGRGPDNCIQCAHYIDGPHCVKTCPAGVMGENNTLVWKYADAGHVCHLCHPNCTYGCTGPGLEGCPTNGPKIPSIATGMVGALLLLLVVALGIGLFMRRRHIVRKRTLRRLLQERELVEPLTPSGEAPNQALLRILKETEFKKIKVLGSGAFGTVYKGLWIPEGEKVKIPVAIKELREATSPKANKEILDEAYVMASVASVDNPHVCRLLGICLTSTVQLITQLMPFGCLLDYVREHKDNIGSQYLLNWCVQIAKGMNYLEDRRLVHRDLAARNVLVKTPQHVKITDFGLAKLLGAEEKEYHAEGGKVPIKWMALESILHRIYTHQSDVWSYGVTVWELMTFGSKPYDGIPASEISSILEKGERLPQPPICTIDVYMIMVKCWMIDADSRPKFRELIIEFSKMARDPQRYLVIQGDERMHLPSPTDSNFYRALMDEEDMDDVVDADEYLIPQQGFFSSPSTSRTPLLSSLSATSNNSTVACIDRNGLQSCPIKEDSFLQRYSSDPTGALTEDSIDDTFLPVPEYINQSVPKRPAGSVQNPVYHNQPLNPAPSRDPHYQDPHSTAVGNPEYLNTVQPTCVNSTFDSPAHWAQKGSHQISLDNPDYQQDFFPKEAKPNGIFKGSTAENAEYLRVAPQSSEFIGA
# Protocol: as §1
# A431 cells = test: Cellular proliferation (Alamar Blue) assay, A431
# Protocol: as §1
# [3] = Homo sapiens, A-431; A431 cells, Alamar Blue, 72 hr; read-out: A431 IC50
# [4] = Homo sapiens, A-431; A431 cells, 72 hr, Alamar Blue; read-out: A431 IC50
GI50 [1],GI50 [2],IC50 (A431 cells; [3]),IC50 (A431 cells; [4]),SMILES
7.87 µM,3 µM,> 10 µM,–,"C=CC(=O)Nc1ccc(F)c(Nc2nc(Nc3cnn(C)c3)ncc2-c2ccc(C(=O)NC)cc2)c1 [Compound 64, 4-(4-((5-acrylamido-2-fluorophenyl)amino)-2-((1-methyl-1H-pyrazol-4-yl)amino)pyrimidin-5-yl)-N-methylbenzamide]"
> 10 µM,> 10 µM,> 10 µM,–,"C=CC(=O)Nc1ccc(OC)c(Oc2nc(Nc3cnn(CCO)c3)ncc2Cl)c1 [Compound 171, N-(3-((5-chloro-2-((1-(2-hydroxyethyl)-1H-pyrazol-4-yl)amino)pyrimidin-4-yl)oxy)-4-methoxyphenyl)acrylamide]"
> 10 µM,> 10 µM,8.99 µM,–,"C=CC(=O)Nc1ccc(F)c(Nc2nc(NC3CCN(C)CC3)ncc2-c2ccc(C(F)(F)F)cc2)c1 [Compound 42, N-(4-fluoro-3-((2-((1-methylpiperidin-4-yl)amino)-5-(4-(trifluoromethyl)phenyl)pyrimidin-4-yl)amino)phenyl)acrylamide trifluoroacetate]"
1.27 µM,2.64 µM,–,2.14 µM,"C=CC(=O)Nc1cc(Nc2nc(Nc3cnn(C)c3)ncc2-c2ccc(C(F)(F)F)cc2)c(F)cn1 [Compound 198, N-[5-fluoro-4-({2-[(1-methyl-1H-pyrazol-4-yl)amino]-5-[4-(trifluoromethyl)phenyl]pyrimidin-4-yl}amino)pyridin-2-yl]prop-2-enamide; trifluoroacetic acid]"
1.24 µM,2.69 µM,–,0.637 µM,"C=CC(=O)Nc1ccc(F)c(Nc2nc(Nc3cnoc3)ncc2-c2ccc(C(F)(F)F)cc2)c1 [Compound 225, N-[4-fluoro-3-({2-[(1,2-oxazol-4-yl)amino]-5-[4-(trifluoromethyl)phenyl]pyrimidin-4-yl}amino)phenyl]prop-2-enamide]"
0.404 µM,0.667 µM,–,1.6 µM,"C=CC(=O)Nc1ccc(F)c(Nc2nc(Nc3cc(C)ns3)ncc2-c2ccc(C(F)(F)F)cc2)c1 [Compound 211, N-[4-fluoro-3-({2-[(3-methyl-1,2-thiazol-5-yl)amino]-5-[4-(trifluoromethyl)phenyl]pyrimidin-4-yl}amino)phenyl]prop-2-enamide]"
2.62 µM,1.99 µM,> 10 µM,–,"Cc1cc(Nc2ncc(Cl)c(Nc3cc(NC(=O)/C=C/CN(C)C)ccc3F)n2)sn1 [Compound 27, (E)-N-(3-((5-chloro-2-((3-methylisothiazol-5-yl)amino)pyrimidin-4-yl)amino)-4-fluorophenyl)-4-(dimethylamino)but-2-enamide]"
> 10 µM,> 10 µM,3.83 µM,–,"C=CC(=O)Nc1ccc(F)c(Nc2nc(Nc3ccccc3Cl)ncc2-c2ccc(C(F)(F)F)cc2)c1 [Compound 40, N-(3-((2-((2-chlorophenyl)amino)-5-(4-(trifluoromethyl)phenyl)pyrimidin-4-yl)amino)-4-fluorophenyl)acrylamide trifluoroacetate]"
0.793 µM,1.61 µM,–,1.78 µM,"C=CC(=O)Nc1ccc(F)c(Nc2nc(Nc3cnn(C)c3)ncc2C2=CCN(C)C2)c1 [Compound 226, N-[4-fluoro-3-({2-[(1-methyl-1H-pyrazol-4-yl)amino]-5-(1-methyl-2,5-dihydro-1H-pyrrol-3-yl)pyrimidin-4-yl}amino)phenyl]prop-2-enamide]"
–,–,–,4.89 µM,"C=CC(=O)Nc1ccc(F)c(Nc2nc(Nc3cnn(C)c3)ncc2-c2cccc3cc[nH]c23)c1 [Compound 265, N-(3-((5-(1H-indol-7-yl)-2-((1-methyl-1H-pyrazol-4-yl)amino)pyrimidin-4-yl)amino)-4-fluorophenyl)acrylamide]"
7.97 µM,9.86 µM,–,5.41 µM,C=CC(=O)Nc1cccc(-n2c3cc(C(F)(F)F)ccc3c3cnc(Nc4cnn(C)c4)nc32)c1 [Compound 209]
> 10 µM,> 10 µM,8.13 µM,–,"C=CC(=O)Nc1cccc(Oc2nc(Nc3ccccc3Cl)ncc2-c2ccc(C(F)(F)F)cc2)c1 [Compound 189, N-(3-((2-((2-chlorophenyl)amino)-5-(4-(trifluoromethyl)phenyl)pyrimidin-4-yl)oxy)phenyl)acrylamide]"
0.619 µM,0.98 µM,–,1.07 µM,"C=CC(=O)Nc1cccc(Oc2nc(Nc3cnn(CCN(C)C)c3)ncc2-c2ccc(C(F)(F)F)cc2)c1 [Compound 235, N-(3-((2-((1-(2-(dimethylamino)ethyl)-1H-pyrazol-4-yl)amino)-5-(4-(trifluoromethyl)phenyl)pyrimidin-4-yl)oxy)phenyl)acrylamide]"
0.276 µM,0.3 µM,0.235 µM,–,"C=CC(=O)Nc1ccc(F)c(Nc2nc(Nc3cnn(C)c3)ncc2-c2cccc(OC(F)F)c2)c1 [Compound 143, N-(3-((5-(3-(difluoromethoxy)phenyl)-2-((1-methyl-1H-pyrazol-4-yl)amino)pyrimidin-4-yl)amino)-4-fluorophenyl)acrylamide trifluoroacetate]"
> 10 µM,> 10 µM,> 10 µM,–,"C=CC(=O)Nc1ccc(F)c(Nc2nc(-n3ccc(N)cc3=O)ncc2Cl)c1 [Compound 3, N-(3-((2-(4-amino-2-oxopyridin-1(2H)-yl)-5-chloropyrimidin-4-yl)amino)-4-fluorophenyl)acrylamide]"
> 10 µM,9.65 µM,0.898 µM,–,"C=CC(=O)Nc1cccc(Oc2nc(Nc3ccc(N4CCN(C)CC4)cc3OC)ncc2-c2ccc(C(F)(F)F)cc2)c1 [Compound 191, N-(3-((2-((2-methoxy-4-(4-methylpiperazin-1-yl)phenyl)amino)-5-(4-(trifluoromethyl)phenyl)pyrimidin-4-yl)oxy)phenyl)acrylamide]"
2.87 µM,> 10 µM,1.28 µM,–,"C=CC(=O)Nc1ccc(F)c(Nc2nc(Nc3ccccc3)ncc2-c2ccc(C(F)(F)F)cc2)c1 [Compound 121, N-(4-fluoro-3-((2-(phenylamino)-5-(4-(trifluoromethyl)phenyl)pyrimidin-4-yl)amino)phenyl)acrylamide]"
> 10 µM,> 10 µM,–,> 10 µM,"C=CC(=O)Nc1cccc(Oc2nc(NCCN(C)C)ncc2-c2ccc(C(F)(F)F)cc2)c1 [Compound 236, N-(3-((2-((2-(dimethylamino)ethyl)amino)-5-(4-(trifluoromethyl)phenyl)pyrimidin-4-yl)oxy)phenyl)acrylamide]"
> 10 µM,8.95 µM,9.69 µM,–,"C=CC(=O)Nc1ccc(C(F)(F)F)c(Oc2nc(Nc3cnn(C)c3)ncc2Cl)c1 [Compound 169, N-(3-((5-chloro-2-((1-methyl-1H-pyrazol-4-yl)amino)pyrimidin-4-yl)oxy)-4-(trifluoromethyl)phenyl)acrylamide]"
4.76 µM,–,> 10 µM,–,"C=CC(=O)Nc1ccc(F)c(Nc2nc(Nc3cc(COC)n(C)n3)ncc2Cl)c1 [Compound 21, N-(3-((5-chloro-2-((5-(methoxymethyl)-1-methyl-1H-pyrazol-3-yl)amino)pyrimidin-4-yl)amino)-4-fluorophenyl)acrylamide]"
–,–,–,6.23 µM,"C=CC(=O)Nc1ccc(F)c(Nc2nc(Nc3cnn(C)c3)ncc2-c2ccccc2-c2ccccc2)c1 [Compound 263, N-(3-((5-([1,1′-biphenyl]-2-yl)-2-((1-methyl-1H-pyrazol-4-yl)amino)pyrimidin-4-yl)amino)-4-fluorophenyl)acrylamide]"
> 10 µM,> 10 µM,–,–,"C=CC(=O)Nc1ccc(F)c(Nc2nc(Nc3cnn(C)c3)ncc2-c2ccc(N(C)C)nc2)c1 [Compound 107, N-(3-((5-(6-(dimethylamino)pyridin-3-yl)-2-((1-methyl-1H-pyrazol-4-yl)amino)pyrimidin-4-yl)amino)-4-fluorophenyl)acrylamide]"
2.41 µM,–,> 10 µM,–,"C=CC(=O)Nc1ccc(F)c(N(c2ccccc2)c2nc(Nc3cnn(C)c3)ncc2Cl)c1 [Compound 20, N-(3-((5-chloro-2-((1-methyl-1H-pyrazol-4-yl)amino)pyrimidin-4-yl)(phenyl)amino)-4-fluorophenyl)acrylamide]"
> 10 µM,> 10 µM,–,–,"C=CC(=O)Nc1cccc2c1ccn2-c1nc(Nc2cnn(C)c2)ncc1-c1ccc(C(F)(F)F)cc1 [Compound 81, N-(1-(2-((1-methyl-1H-pyrazol-4-yl)amino)-5-(4-(trifluoromethyl)phenyl)pyrimidin-4-yl)-1H-indol-4-yl)acrylamide]"

SMILES,GI50 [1],GI50 [2],IC50 (A431 cells; [3]),IC50 (A431 cells; [4])
"C=CC(=O)Nc1ccc(F)c(Nc2nc(Nc3cnn(C)c3)ncc2C2=CCN(C)CC2)c1 [Compound 114, N-(4-fluoro-3-((5-(1-methyl-1,2,3,6-tetrahydropyridin-4-yl)-2-((1-methyl-1H-pyrazol-4-yl)amino)pyrimidin-4-yl)amino)phenyl)acrylamide]",1.84 µM,0.964 µM,0.816 µM,–
